Results from US7592335B2, “Oxazolidinone derivatives as antimicrobials” (Ranbaxy Laboratories Limited, priority 2005, dated 2009).
In brackets after ≈: the same amount, converted by molar mass. Blank lines part the entries; values can stand above or below the compound they belong to.

What was measured:
[1] = test system: Haemophilus influenzae 49247; assay: Haemophilus MIC, microbroth dilution method; assay type: cell-based; conditions: H. influ. 49247, Mueller Hinton Broth cation adjusted + yeast extract + supplements
Experimental: (§1) The compounds of the invention display antibacterial activity when tested by the agar incorporation method. The following minimum inhibitory concentrations (μg/mL) were obtained for representative compound of the invention, which is given below in the following table.
The in vitro activity for Haemophilus MICs were performed by using Microbroth dilution method as follows: Media used: Mueller Hinton Broth (MHB-Difco)−Cation adjusted+5 grams per liter Yeast extract+supplements
Preparation of drug concentrations in 96 well microtitre plates were done as per the NCCLS method. Inoculum was prepared by direct colony suspensions in normal saline and adjusted to 1 McFarland turbidity and subsequently diluted in broth 100 times as per NCCLS guidelines in order to obtain 10^5 […].
(§2) The concentration showing no growth of the inoculated culture was recorded as the MIC. Appropriate ATCC standard strains were simultaneously tested and result recorded only when the MIC's against standard antibiotics were within the acceptable range.

[2] = test system: Streptococcus pneumonia ATCC AB34; assay: in vitro antibacterial activity, agar dilution MIC (MHA and 5% sheep blood); assay type: cell-based, Streptococcus pneumoniae; conditions: 18-24 hours
Experimental: as §1
(§3) Inoculum preparation for Streptococcus pneumoniae, Moraxella catarrhalis, Streptococcus pyogenes strains and the method of MIC is an agar dilution method with MHA (Mueller Hinton agar) and 5% sheep blood. Inoculum was prepared by direct colony suspension in normal saline solution and adjusting the turbidity to 1 Mcfarland and subsequently diluting as per NCCLS guidelines in order to obtain 10^4 CFU/ml. The plates were incubated in CO2 at 37° C. for 18-24 hours.
as §2

[3] = test system: Streptococcus pneumonia ATCC6303; assay: as above; assay type: cell-based, Streptococcus pneumoniae; conditions: 18-24 hours
Experimental: as §1, §3, §2

[4] = test system: Enterococcus faecalis ATCC 29212; assay: in vitro antibacterial activity, agar dilution MIC; assay type: cell-based; conditions: 35±2° C.
Experimental: as §1
(§4) Briefly, the compounds were dissolved in dimethylsulphoxide and doubling dilution of the compounds was incorporated into Muller Hilton agar before solidification. Inoculum for staphylococcus aureus and Enterococus strain was prepared by direct colony suspension in normal saline solution and adjusting the turbidity to 0.5 Macfarland turbidity and subsequently diluting as per NCCLS guidelines in order to obtain 10^4 CFU/spot. CFU/mL of few randomly selected cultures was performed. The cultures were replicated on agar plate using Denley's multipoint replicator. The agar plates were incubated for 18 hours-24 hours (24 hours for MRSA studies) at 35±2° C. Q.C. strains were also included in each run of the study.
as §2

[5] = test system: Staphylococcus aureus ATCC 15187; assay: in vitro antibacterial activity, agar dilution MIC; assay type: cell-based; conditions: 35±2° C.
Experimental: as §1, §4, §2

[6] = test system: Vancomycin-resistant enterococci ATCC 6A; assay: in vitro antibacterial activity, agar dilution MIC; assay type: cell-based; conditions: VRE ATCC 6A, 18-24 hours, 35±2° C.
Experimental: as §1, §4, §2

[7] = test system: Methicilline Resistant Staphylococcus aureus ATCC562; assay: in vitro antibacterial activity, agar dilution MIC; assay type: cell-based; conditions: 24 hours, 35±2° C.
Experimental: as §1, §4, §2

[8] = test system: Methicilline Resistant Staphylococcus aureus ATCC33; assay: in vitro antibacterial activity, agar dilution MIC; assay type: cell-based; conditions: 24 hours, 35±2° C.
Experimental: as §1, §4, §2

[9] = test system: Staphylococcus aureus ATCC 25923; assay: in vitro antibacterial activity, agar dilution MIC; assay type: cell-based; conditions: 35±2° C.
Experimental: as §1, §4, §2

[10] = test system: Streptococcus pyogenes ATCC 19615; assay: in vitro antibacterial activity, agar dilution MIC (MHA and 5% sheep blood); assay type: cell-based; conditions: 18-24 hours
Experimental: as §1, §3, §2

[11] = test system: Moraxella catarrhalis ATCC 8176; assay: as above; assay type: cell-based; conditions: 18-24 hours
Experimental: as §1, §3, §2

Structure (SMILES): CC(=O)NCC1CN(c2ccc(N3CC4NCCOC4C3)c(F)c2)C(=O)O1 (stereo not shown) [Compound No. 05, N-[(3-{3-fluoro-4-[(7aE)-hexahydropyrrolo[3,4-b][1,4]oxazin-6(2H)-yl]phenyl}-2-oxo-1,3-oxazolidin-5-yl)methyl]acetamide]
- minimum inhibitory concentration, H. inf 49247 [1]: 8 µg/mL
- minimum inhibitory concentration, S. pneum AB34 ([2]; CO2, 37° C.): 2 µg/mL (≈ 5.29 µM)
- minimum inhibitory concentration, S. pneum 6303 ([3]; CO2, 37° C.): 2 µg/mL (≈ 5.29 µM)
- minimum inhibitory concentration, E. faecalis 29212 ([4]; Ent. faecalis ATCC 29212, 18-24 hours): 2 µg/mL (≈ 5.29 µM)
- minimum inhibitory concentration, S. aureus 15187 ([5]; S. aureus ATCC 15187, 18-24 hours): 8 µg/mL (≈ 21.1 µM)
- minimum inhibitory concentration, VRE 6A [6]: 2 µg/mL (≈ 5.29 µM)
- minimum inhibitory concentration, MRSA 562 [7]: 4 µg/mL (≈ 10.6 µM)
- minimum inhibitory concentration, MRSA 33 [8]: 4 µg/mL (≈ 10.6 µM)
- minimum inhibitory concentration, S. aureus 25923 ([9]; S. aureus ATCC 25923, 18-24 hours): 8 µg/mL (≈ 21.1 µM)
- minimum inhibitory concentration, S. pyogenes 19615 ([10]; Strep. pyog. ATCC 19615, CO2, 37° C.): 2 µg/mL (≈ 5.29 µM)
- minimum inhibitory concentration, M. catt 8176 ([11]; M. catt. ATCC 8176, CO2, 37° C.): >16 µg/mL

- MIC ([1]; Haemophilus influenzae, read-out: minimum inhibitory concentration, H. inf 49247): 8 µg/mL
- MIC ([2]; Streptococcus pneumoniae, ATCCAB34, S. pneum ATCC AB34, CO2, 37° C., read-out: minimum inhibitory concentration, S. pneum AB34): 2 µg/mL (≈ 5.93 µM)
- MIC ([3]; Streptococcus pneumoniae, S. pneum ATCC6303, CO2, 37° C., read-out: minimum inhibitory concentration, S. pneum 6303): 1 µg/mL (≈ 2.96 µM)
- MIC ([4]; Enterococcus faecalis, ATCC29212, Ent. faecalis ATCC 29212, 18-24 hours, read-out: minimum inhibitory concentration, E. faecalis 29212): 2 µg/mL (≈ 5.93 µM)
- MIC ([5]; Staphylococcus aureus, ATCC15187, S. aureus ATCC 15187, 18-24 hours, read-out: minimum inhibitory concentration, S. aureus 15187): 2 µg/mL (≈ 5.93 µM)
- MIC ([6]; Enterococcus, read-out: minimum inhibitory concentration, VRE 6A): 2 µg/mL (≈ 5.93 µM)
- MIC ([7]; Staphylococcus aureus, ATCC 562 / MRSA, read-out: minimum inhibitory concentration, MRSA 562): 2 µg/mL (≈ 5.93 µM)
- MIC ([8]; Staphylococcus aureus, ATCC 33 / MRSA, read-out: minimum inhibitory concentration, MRSA 33): 2 µg/mL (≈ 5.93 µM)
- MIC ([9]; Staphylococcus aureus, ATCC25923, S. aureus ATCC 25923, 18-24 hours, read-out: minimum inhibitory concentration, S. aureus 25923): 2 µg/mL (≈ 5.93 µM)
- MIC ([10]; Streptococcus pyogenes, ATCC19615, Strep. pyog. ATCC 19615, CO2, 37° C., read-out: minimum inhibitory concentration, S. pyogenes 19615): 2 µg/mL (≈ 5.93 µM)
- MIC ([11]; Moraxella catarrhalis, ATCC8176, M. catt. ATCC 8176, CO2, 37° C., read-out: minimum inhibitory concentration, M. catt 8176): 2 µg/mL (≈ 5.93 µM)
Structure (SMILES): CC(=O)NC[C@H]1CN(c2ccc(N3CCOCC3)c(F)c2)C(=O)O1 [Linezolid]
